Columns and labels:
[1] = molecular target: T1, rod opsin (Mus musculus, UniProt P15409); assay: cAMP quantification assay in NIH3T3-(WT-opsin/GFP) cells; assay type: cell-based
T1 construct: expressed in transfected cells
Description: Three NIH3T3 stable cell lines, NIH3T3-(WT-opsin/GFP), NIH3T3-(P23H-opsin/GFP), and NIH3T3-(GFP) were previously generated which stably express mouse WT opsin and GFP; P23H opsin and GFP; and only GFP, respectively. GFP is expressed separately from opsin in these cell lines. NIH3T3 cells were from ATCC. DNA constructs for generating these stable cell lines were confirmed by Sanger sequencing. Expression of GFP was confirmed by green fluorescence imaging, and expression of P23H and WT opsin were confirmed by immunoblots.
NIH3T3-(Opsin/GFP) and NIH3T3-(GFP) were plated in two 96-well plates at a density of 50,000 cells per well in 100 μl of DMEM medium containing 10% FBS and antibiotics. After 24 h, cells were washed with Krebs Ringer bicarbonate buffer containing glucose (KRBG), and incubated with KRBG buffer containing 100 μM cAMP specific phosphodiesterase inhibitor, Ro 20-1724 (Tocris, UK) at RT for 10 min. […] While one plate then was wrapped with aluminum foil, the second plate was exposed to regular room light. Both plates were kept in a cell culture incubator for 15 min at 37° C. in 5% CO2. Levels of accumulated cAMP were detected with the Catchpoint cAMP fluorescent assay kit (Molecular Devices, Sunnyvale, CA USA) and the fluorescence with excitation/emission at 530/590 nm was read with a Flexstation3 plate reader (Molecular Devices) as described in the manufacturer's protocol.

[2] = molecular target: T2, human rod opsin C110Y (Homo sapiens, UniProt P08100, C110Y); assay: Cell surface immunostain for rhodopsin mutants in NIH3T3 cells; assay type: cell-based; details: YC-001 treatment
T2 construct: expressed in transfected cells; host or cells: NIH3T3, transfected with pcDNA3.1-hOpsin mutant
Method: (§1) Human rhodopsin cDNA was placed into the pcDNA3.1(+) vector (pcDNA3.1-hOpsin). Site directed mutagenesis was performed following the QuickChange II site-directed mutagenesis kit (Agilent Technologies Inc.). Primers for the following mutations were as follows: […]
(§2) DNA vectors with rhodopsin mutations were confirmed by Sanger sequencing. After NIH3T3 cells were transfected with pcDNA3.1-hOpsin or its mutants for 24 h, these cells were resuspended and seeded into a 96-well plate with an optic bottom (Corning). […] Each condition was repeated in three wells. The treated plate was covered in tin foil and incubated at 37° C. with 5% CO2 for 24 h. Cells were then immunostained with Alexa […] 488-conjugated B6-30 anti-rhodopsin antibody. Cells were not exposed to detergents so that cell membranes were kept intact and only rhodopsin on the cell surface was immunostained. Alexa 488 fluorescence was imaged by the ImageExpress (Molecular Devices) high-content imager with a 20× objective. Medicinal Chemistry of YC-001

[3] = molecular target: T3, human rod opsin P267L (Homo sapiens, UniProt P08100, P267L); assay: as above; assay type: cell-based; details: YC-001 treatment
T3 construct: expressed in transfected cells; host or cells: NIH3T3, transfected with pcDNA3.1-hOpsin mutant
Method: as §1, §2

[4] = molecular target: T4, human rod opsin G106R (Homo sapiens, UniProt P08100, G106R); assay: as above; assay type: cell-based; details: YC-001 treatment
T4 construct: expressed in transfected cells; host or cells: NIH3T3, transfected with pcDNA3.1-hOpsin mutant
Method: as §1, §2

[5] = molecular target: T5, human rod opsin D190N (Homo sapiens, UniProt P08100, D190N); assay: as above; assay type: cell-based; details: YC-001 treatment
T5 construct: expressed in transfected cells; host or cells: NIH3T3, transfected with pcDNA3.1-hOpsin mutant
Method: as §1, §2

[6] = Metabolic stability in human liver microsomes; assay type: in vitro ADME; details: 5 μM, with NADPH, vs verapamil
Method: A standard metabolic stability assay was performed in the presence of mouse or human liver microsomes. YC-001 (5 μM) was incubated with the microsomes (0.125 mg mL^−1) resuspended in 0.2 mL of PBS buffer, pH 7.4 composed of 10 mM Na2HPO4, 1.8 mM KH2PO4, 137 mM NaCl, and 2.7 mM KCl. The enzymatic reaction to produce oxidized metabolites was initiated by addition of NADPH (1 mM). Samples were incubated at 37° C. for up to 240 min. Incubation without the cofactor was conducted in parallel to assess NADPH-independent clearance. The reactions were stopped with 0.2 mL of methanol followed by 0.3 mL chloroform. Residual YC-001 was extracted by vigorous shaking. To facilitate phase separation, the samples were spun down for 2 min, 15,000×g. The chloroform fraction was collected, dried down, and the extracted organic compounds were redissolved in 0.2 mL of methanol. To quantify YC-001, the samples were injected onto an Eclipse XDB-C18 column (4.6×150 mm, 5 μm) (Agilent Technologies) equilibrated with solvent composed of 30% acetonitrile in water (v/v), and 0.1% formic acid. YC-001 was eluted in a gradient of acetonitrile in water (30-100%) developed within 15 min at a flow rate of 1 mL min^−1, detected at 350 nm, and quantified by correlating peak areas with known quantities of an original synthetic standard. […]

T1 sequence (P15409 whole entry): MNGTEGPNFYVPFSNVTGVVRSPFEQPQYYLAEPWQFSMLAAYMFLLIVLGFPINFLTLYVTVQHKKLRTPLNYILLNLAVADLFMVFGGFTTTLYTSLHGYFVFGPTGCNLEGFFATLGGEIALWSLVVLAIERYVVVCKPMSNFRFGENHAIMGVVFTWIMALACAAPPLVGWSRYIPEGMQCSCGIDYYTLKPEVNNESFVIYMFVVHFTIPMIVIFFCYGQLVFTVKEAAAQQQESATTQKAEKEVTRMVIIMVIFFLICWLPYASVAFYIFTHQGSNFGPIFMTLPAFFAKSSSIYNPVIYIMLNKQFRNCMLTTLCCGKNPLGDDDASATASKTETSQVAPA

Row | SMILES | cAMP level upon light exposure ([1]; NIH3T3-(WT-opsin/GFP) cells, light) | fold increase in EC50 of 9-cis-retinal dose-response curve ([1]; with 40 μM YC-001 co-treatment vs 9-cis-retinal alone) [fold] | cell surface staining of mutant opsin [2] | cell surface staining of mutant opsin [3] | cell surface staining of mutant opsin [4] | cell surface staining of mutant opsin [5] | cAMP levels, co-treated with 1 μM 9-cis-retinal under light ([1]; FIG. 5c) | EC50 ([1]; either in the dark or light, read-out: EC50 of dose-dependent increase in cAMP levels) [µM] | initial clearance in liver microsomes [6]
1 | CC1=C(/C=C/C(C)=C\C=C\C(C)=C\C=O)C(C)(C)CCC1 [9-cis-retinal, reference compound] | significantly reduced cAMP level | 3 |  |  |  |  |  |  | 
2 | O=C1OCC(c2ccc(Cl)s2)=C1c1cccs1 [YC-001] |  |  | not effective | increased significantly | increased significantly | increased significantly | dose-dependent elevation in cAMP levels | 8.22 | even higher initial clearance

From patent publication US12251373B2, “Compounds and methods of treating retinal degeneration” (CASE WESTERN RESERVE UNIVERSITY, priority 2017, dated 2025)
